A word on the IC50: it is the concentration at which inhibition is half-maximal.

Where two headings read alike, the source gives them in different places.

The assay has as its target human S1P3 receptor (Homo sapiens (Human), UniProt Q99500). The assay can be described thus: Activation or block of activation of human S1P3 receptor, Ca+2 FLIPR assay. To be noted: for IC50: read-out: S1P3 IC50. It counts as cell-based. Summed up:
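T24 cells stably expressing human S1P3, grown in charcoal-treated FBS, dye-loaded and read on FLIPR for calcium after ligand addition in HBSS/20 mM HEPES (1 s readings for 75 s, then every 10 s for 2.5 min). Agonist or antagonist mode; S1P positive control in 4 mg/ml fatty-acid-free BSA. IC50 by Levenberg–Marquardt regression.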

Setting [1] is: T24 cells stably expressing the human S1P3 receptor, FLIPR Ca+2 response, 0.61 nM to 10,000 nM.
The mark [2] stands for this setting: T24 cells stably expressing the human S1P3 receptor, value in brackets.

human S1P3 receptor, sequence (Q99500 whole entry): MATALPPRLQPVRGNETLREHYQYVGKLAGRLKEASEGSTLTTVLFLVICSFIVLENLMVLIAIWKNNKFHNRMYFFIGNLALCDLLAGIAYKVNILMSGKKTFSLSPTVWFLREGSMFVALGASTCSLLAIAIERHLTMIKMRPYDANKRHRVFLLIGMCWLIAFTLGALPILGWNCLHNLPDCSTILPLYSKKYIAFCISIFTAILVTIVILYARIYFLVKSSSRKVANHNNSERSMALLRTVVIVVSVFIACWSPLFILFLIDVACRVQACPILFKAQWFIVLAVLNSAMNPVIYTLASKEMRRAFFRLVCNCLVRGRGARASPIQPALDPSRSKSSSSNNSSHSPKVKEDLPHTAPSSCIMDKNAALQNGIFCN

`CC(C)c1c(C(=O)NCc2ccc(C(F)(F)F)nc2)c2ccc(OC3CCCC3)cc2n1Cc1ccccn1` [Compound 142, 6-(Cyclopentyloxy)-2-isopropyl-1-(pyridin-2-ylmethyl)-N-((6-(trifluoromethyl)pyridin-3-yl)methyl)-1H-indole-3-carboxamide]: the IC50 under setting [1] was 0.048 µM. For the same molecule, the “S1P3 (% inh)” value under setting [2] is given as 99%.
For `CC(C)c1c(C(=O)NCc2ccc(F)c(F)c2)c2ccc(OC3CCOCC3)cc2n1Cc1ccccn1` [Compound 143, N-(3,4-Difluorobenzyl)-2-isopropyl-1-(pyridin-2-ylmethyl)-6-(tetrahydro-2H-pyran-4-yloxy)-1H-indole-3-carboxamide], in that order: 0.036 µM and 99%.
`CC(C)c1c(C(=O)NCc2cncc(F)c2)c2ccc(OC3CCCC3)cc2n1Cc1ccccn1` [Compound 148, 6-(Cyclopentyloxy)-N-((5-fluoropyridin-3-yl)methyl)-2-isopropyl-1-(pyridin-2-ylmethyl)-1H-indole-3-carboxamide]: the “S1P3 (% inh)” value is reported as 13 nM (100) % and the IC50 was found to be 0.013 µM.
Regarding `CC(C)COc1ccc2c(C(=O)NCc3cncc(F)c3)c(C(C)C)n(Cc3ccccn3)c2c1` [Compound 149, N-((5-Fluoropyridin-3-yl)methyl)-6-isobutoxy-2-isopropyl-1-(pyridin-2-ylmethyl)-1H-indole-3-carboxamide], the IC50 under setting [1] worked out at 0.029 µM. In addition, the “S1P3 (% inh)” value under setting [2] worked out at 100%.
For `CC(C)c1c(C(=O)NCc2ccc(F)c(F)c2)c2ccc(Oc3nccs3)cc2n1Cc1ccccn1` [Compound 150, N-(3,4-Difluorobenzyl)-2-isopropyl-1-(pyridin-2-ylmethyl)-6-(thiazol-2-yloxy)-1H-indole-3-carboxamide] the same measures were 0.005 µM and 100%.
For the molecule `CC(C)c1c(C(=O)NCc2ccc(F)c(F)c2)c2ccc(O)cc2n1Cc1cccnc1` [Compound 151, N-(3,4-Difluorobenzyl)-6-hydroxy-2-isopropyl-1-(pyridin-3-ylmethyl)-1H-indole-3-carboxamide], the “S1P3 (% inh)” value is 65 nM (98) % and the IC50 was 0.065 µM.
For `CC(C)c1c(C(=O)NCc2ccc(F)c(F)c2)c2ccc(Oc3nccs3)cc2n1Cc1cccnc1` [Compound 152, N-(3,4-Difluorobenzyl)-2-isopropyl-1-(pyridin-3-ylmethyl)-6-(thiazol-2-yloxy)-1H-indole-3-carboxamide], the 50% inhibitory concentration (IC50) under setting [1] turned out to be 0.017 µM. Further, under setting [2], the “S1P3 (% inh)” value is 97%.
For `CC(C)c1c(C(=O)NCc2ccc(F)c(F)c2)c2ccc(OC3CCCC3)cc2n1Cc1cccnc1` [Compound 153, 6-(Cyclopentyloxy)-N-(3,4-difluorobenzyl)-2-isopropyl-1-(pyridin-3-ylmethyl)-1H-indole-3-carboxamide], the “S1P3 (% inh)” value is recorded as 5 nM (99) % and the IC50 came out at 0.005 µM.
As for `CC(C)Oc1ccc2c(C(=O)NCc3ccc(F)c(F)c3)c(C(C)C)n(Cc3cccnc3)c2c1` [Compound 154, N-(3,4-Difluorobenzyl)-6-isopropoxy-2-isopropyl-1-(pyridin-3-ylmethyl)-1H-indole-3-carboxamide], the concentration for half-maximal inhibition (IC50) under setting [1] was found to be 0.015 µM. Besides, under setting [2], the “S1P3 (% inh)” value came out at 100%.
`CC(C)Cn1c(C(C)C)c(C(=O)NCc2ccc(F)c(F)c2)c2ccc(OC3CCCC3)cc21` [Compound 159, 6-(Cyclopentyloxy)-N-(3,4-difluorobenzyl)-1-isobutyl-2-isopropyl-1H-indole-3-carboxamide]: the concentration for half-maximal inhibition (IC50) under setting [1] was 0.041 µM. Further, the “S1P3 (% inh)” value under setting [2] is reported as 96%.
For `CC(C)c1c(C(=O)NCc2cncc(F)c2)c2ccc(OC3CCCC3)cc2n1Cc1cccnc1` [Compound 163, 6-(Cyclopentyloxy)-N-((5-fluoropyridin-3-yl)methyl)-2-isopropyl-1-(pyridin-3-ylmethyl)-1H-indole-3-carboxamide], in that order: 0.055 µM and 100%.
`CC(C)c1c(C(=O)NCc2ccc(F)c(F)c2)c2ccc(OC3CCC3)cc2n1Cc1cccnc1` [Compound 165, 6-Cyclobutoxy-N-(3,4-difluorobenzyl)-2-isopropyl-1-(pyridin-3-ylmethyl)-1H-indole-3-carboxamide]: the IC50 under setting [1] stood at 0.007 µM. Further, the “S1P3 (% inh)” value under setting [2] was 100%.
For `CC(C)Oc1ccc2c(C(=O)NCc3ccc(F)c(F)c3)c(CN3CCCC3)n(Cc3ccccn3)c2c1` [Compound 175, N-(3,4-Difluorobenzyl)-6-isopropoxy-1-(pyridin-2-ylmethyl)-2-(pyrrolidin-1-ylmethyl)-1H-indole-3-carboxamide] the same measures were 1.1 µM and 100%.
With `CC(C)Oc1ccc2c(C(=O)NCc3ccc(F)c(F)c3)c(C[N+]3(C)CCCC3)n(Cc3ccccn3)c2c1.[I-]` [Compound 176, 1-((3-(3,4-Difluorobenzylcarbamoyl)-6-isopropoxy-1-(pyridin-2-ylmethyl)-1H-indol-2-yl)methyl)-1-methylpyrrolidinium iodide], the IC50 under setting [1] was 7.6 µM. The “S1P3 (% inh)” value under setting [2] is given as 98%.
Consider `CC(C)c1c(C(=O)NCc2ccc(F)c(F)c2)c2ccc(NC3CCCC3)cc2n1Cc1ccccn1` [Compound 183, 6-(Cyclopentylamino)-N-(3,4-difluorobenzyl)-2-isopropyl-1-(pyridin-2-ylmethyl)-1H-indole-3-carboxamide], for which the IC50 under setting [1] was 0.152 µM. Further, the “S1P3 (% inh)” value under setting [2] is on record as 100%.
For `CC(C)c1c(C(=O)NCc2ccc(F)c(F)c2)c2ccc(NC3=NCCS3)cc2n1Cc1ccccn1` [Compound 184, N-(3,4-Difluorobenzyl)-6-(4,5-dihydrothiazol-2-ylamino)-2-isopropyl-1-(pyridin-2-ylmethyl)-1H-indole-3-carboxamide] the same measures were above 8.3 µM and 80%.
As for `CC(C)c1c(C(=O)NCc2ccc(F)c(F)c2)c2ccc(N(C)C3CCCC3)cc2n1Cc1ccccc1` [Compound 189, 1-Benzyl-6-(cyclopentyl(methyl)amino)-N-(3,4-difluorobenzyl)-2-isopropyl-1H-indole-3-carboxamide], the IC50 under setting [1] worked out at 0.087 µM. Moreover, the “S1P3 (% inh)” value under setting [2] is 100%.
In the case of `CC(C)c1c(C(=O)NCc2ccc(F)c(F)c2)c2ccc(NC3CCC3)cc2n1Cc1ccccc1` [Compound 190, 1-Benzyl-6-(cyclobutylamino)-N-(3,4-difluorobenzyl)-2-isopropyl-1H-indole-3-carboxamide], the “S1P3 (% inh)” value was 13 nM (100) % and the IC50 is 0.013 µM.
On to `CC(C)c1c(C(=O)NCc2cc(F)cc(F)c2)c2ccc(NC3CCCC3)cc2n1Cc1ccccc1` [Compound 191, 1-Benzyl-6-(cyclopentylamino)-N-(3,5-difluorobenzyl)-2-isopropyl-1H-indole-3-carboxamide], for which, under setting [1], the IC50 is 0.038 µM. Besides, under setting [2], the “S1P3 (% inh)” value came out at 99%.
Consider `CC(C)c1c(C(=O)NCc2ccc(F)cc2)c2ccc(NC3CCCC3)cc2n1Cc1ccccc1` [Compound 192, 1-Benzyl-6-(cyclopentylamino)-N-(4-fluorobenzyl)-2-isopropyl-1H-indole-3-carboxamide], for which the “S1P3 (% inh)” value is recorded as 70 nM (100) % and the IC50 is 0.07 µM.
For `CC(C)c1c(C(=O)NCc2cncc(F)c2)c2ccc(NC3CCCC3)cc2n1Cc1ccccc1` [Compound 193, 1-Benzyl-6-(cyclopentylamino)-N-((5-fluoropyridin-3-yl)methyl)-2-isopropyl-1H-indole-3-carboxamide] the same measures were 163 nM (100) % and 0.163 µM.
